Measured values from patent US12116343B2, “Inhibitors of APOL1 and methods of using same” (Vertex Pharmaceuticals Incorporated, priority 2020, dated 2024).
Values belong to the molecule of their own block, whether it stands above or below them.

Biological target: T1, G1 APOL1 (Homo sapiens, UniProt O14791, I384M/S342G)
T1 construct: expressed in transfected cells
T1 sequence (O14791 28-398 S342G/I384M): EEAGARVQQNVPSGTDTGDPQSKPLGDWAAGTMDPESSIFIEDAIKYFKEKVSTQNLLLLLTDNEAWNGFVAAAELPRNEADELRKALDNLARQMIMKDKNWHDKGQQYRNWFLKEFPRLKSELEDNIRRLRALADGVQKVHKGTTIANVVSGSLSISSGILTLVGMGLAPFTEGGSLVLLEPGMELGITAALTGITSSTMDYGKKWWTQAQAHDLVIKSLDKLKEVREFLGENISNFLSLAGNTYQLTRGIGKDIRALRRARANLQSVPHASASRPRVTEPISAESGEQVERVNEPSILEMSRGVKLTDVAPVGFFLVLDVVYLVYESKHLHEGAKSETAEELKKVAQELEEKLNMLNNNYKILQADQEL
Test: Acute APOL1 Thallium Assay with inducible stable clones of HEK 293 cells
Assay type: cell-based
Conditions: HEK 293 T-Rex cells expressing G1 APOL1; read-out: Thallium Assay (IC50)
How it was run: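 Tetracycline-inducible HEK293 T-Rex clone G1 DC3.25 expressing G1 APOL1, plated at 26000 cells/well in Opti-MEM with tetracycline induction. APOL1 pore activity read on FLIPR as fluorescence increase from Tl+ influx into cells loaded with a Tl+-sensitive AM-ester dye.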

SMILES: O=C([C@H]1C[C@H](c2c(-c3ccc(F)cc3)[nH]c3c(F)cc(F)cc32)C1)N1CCOCC1CCO (stereo partly drawn) [Compound 113]
IC50: > 1000 nM

SMILES: O=C([C@H]1C[C@H](c2c(-c3ccc(F)cc3)[nH]c3c(F)cc(F)cc32)C1)N(CCOCCO)C1CCC1 [Compound 121]
IC50: > 1000 nM

SMILES: O=C([C@H]1C[C@H](c2c(-c3ccc(F)cc3)[nH]c3c(F)cc(F)cc32)C1)N1CCOC(CO)C1 (stereo partly drawn) [Compound 148]
IC50: > 1000 nM

SMILES: O=C1CC[C@@H](NC(=O)[C@H]2C[C@H](c3c(-c4ccc(F)cc4)[nH]c4c(F)cc(F)cc43)C2)C1 [Compound 157]
IC50: > 1000 nM

SMILES: O=C([C@H]1C[C@H](c2c(-c3ccc(F)cc3)[nH]c3c(F)cc(F)cc32)C1)N1CCCC1CCO (stereo partly drawn) [Compound 101]
IC50: > 1000 nM

SMILES: CC(C)[C@@H](CO)NC(=O)[C@H]1C[C@H](c2c(-c3ccc(F)cc3)[nH]c3c(F)cc(F)cc32)C1 [Compound 141]
IC50: > 1000 nM

SMILES: O=C([C@H]1C[C@H](c2c(-c3ccc(F)cc3)[nH]c3c(F)cc(F)cc32)C1)N1CCN(CCO)CC1 [Compound 126]
IC50: > 1000 nM

SMILES: CC1(C)CN(C(=O)[C@H]2C[C@H](c3c(-c4ccc(F)cc4)[nH]c4c(F)cc(F)cc43)C2)CC1O (stereo partly drawn) [Compound 102]
IC50: > 1000 nM

SMILES: O=C([C@H]1C[C@H](c2c(-c3ccc(F)cc3)[nH]c3c(F)cc(F)cc32)C1)N(CCO)CCCO [Compound 117]
IC50: > 1000 nM

SMILES: O=C([C@H]1C[C@H](c2c(-c3ccc(F)cc3)[nH]c3c(F)cc(F)cc32)C1)N1C[C@H]2C[C@@]2(CO)C1 [Compound 98]
IC50: > 1000 nM

SMILES: O=C([C@H]1C[C@H](c2c(-c3ccc(F)cc3)[nH]c3c(F)cc(F)cc32)C1)N1CCC(CO)(CO)CC1 [Compound 108]
IC50: > 1000 nM

SMILES: O=C([C@H]1C[C@H](c2c(-c3ccc(F)cc3)[nH]c3c(F)cc(F)cc32)C1)N1CCCC[C@@H]1CO [Compound 107]
IC50: > 1000 nM

SMILES: O=C([C@H]1C[C@H](c2c(-c3ccc(F)cc3)[nH]c3c(F)cc(F)cc32)C1)N1CCC[C@@H](CO)C1 [Compound 109]
IC50: > 1000 nM

SMILES: CN(C)C[C@@H]1CCN(C(=O)[C@H]2C[C@H](c3c(-c4ccc(F)cc4)[nH]c4c(F)cc(F)cc43)C2)C[C@H]1O [Compound 110]
IC50: > 1000 nM

SMILES: CCC1(O)CN(C(=O)[C@H]2C[C@H](c3c(-c4ccc(F)cc4)[nH]c4c(F)cc(F)cc43)C2)C1 [Compound 112]
IC50: > 1000 nM

SMILES: O=C1CCC(NC(=O)[C@H]2C[C@H](c3c(-c4ccc(F)cc4)[nH]c4c(F)cc(F)cc43)C2)C1 (stereo partly drawn) [Compound 159]
IC50: > 1000 nM

SMILES: O=C([C@H]1C[C@H](c2c(-c3ccc(F)cc3)[nH]c3c(F)cc(F)cc32)C1)N1CCC(CCO)CC1 [Compound 134]
IC50: > 1000 nM

SMILES: O=C([C@H]1C[C@H](c2c(-c3ccc(F)cc3)[nH]c3c(F)cc(F)cc32)C1)N1CCC[C@H](O)C1 [Compound 105]
IC50: > 1000 nM

Continued, values first:

IC50: > 1000 nM
SMILES: O=C([C@H]1C[C@H](c2c(-c3ccc(F)cc3)[nH]c3c(F)cc(F)cc32)C1)N1CC[C@H](CO)[C@H](O)C1 [Compound 100]

IC50: 250 to 1000 nM
SMILES: O=C(NCCCO)[C@H]1C[C@H](c2c(-c3ccc(F)cc3)[nH]c3c(F)cc(F)cc32)C1 [Compound 104]

IC50: > 1000 nM
SMILES: O=C(O)CNC(=O)[C@H]1C[C@H](c2c(-c3ccc(F)cc3)[nH]c3c(F)cc(F)cc32)C1 [Compound 10]

IC50: > 1000 nM
SMILES: O=C([C@H]1C[C@H](c2c(-c3ccc(F)cc3)[nH]c3c(F)cc(F)cc32)C1)N(CCO)c1cnccn1 [Compound 132]

IC50: 250 to 1000 nM
SMILES: O=C(N[C@H](CO)C(F)(F)F)[C@H]1C[C@H](c2c(-c3ccc(F)cc3)[nH]c3c(F)cc(F)cc32)C1 [Compound 164]

IC50: 250 to 1000 nM
SMILES: O=C(NCc1cocn1)[C@H]1C[C@H](c2c(-c3ccc(F)cc3)[nH]c3c(F)cc(F)cc32)C1 [Compound 168]

IC50: < 250 nM
SMILES: O=C1C[C@@H](NC(=O)[C@H]2C[C@H](c3c(-c4ccc(F)cc4)[nH]c4c(F)cc(F)cc43)C2)C(=O)N1 [Compound 166]

IC50: < 250 nM
SMILES: O=C(NC(CO)CO)[C@H]1C[C@H](c2c(-c3ccc(F)cc3)[nH]c3c(F)cc(F)cc32)C1 [Compound 8]

IC50: 250 to 1000 nM
SMILES: CN1CCC(NC(=O)[C@H]2C[C@H](c3c(-c4ccc(F)cc4)[nH]c4c(F)cc(F)cc43)C2)C1=O (stereo partly drawn) [Compound 7]

IC50: 250 to 1000 nM
SMILES: O=C(NCc1cnco1)[C@H]1C[C@H](c2c(-c3ccc(F)cc3)[nH]c3c(F)cc(F)cc32)C1 [Compound 170]

IC50: 250 to 1000 nM
SMILES: CC(C)(NC(=O)[C@H]1C[C@H](c2c(-c3ccc(F)cc3)[nH]c3c(F)cc(F)cc32)C1)C(N)=O [Compound 11]

IC50: 250 to 1000 nM
SMILES: CC(O)CN(CCO)C(=O)[C@H]1C[C@H](c2c(-c3ccc(F)cc3)[nH]c3c(F)cc(F)cc32)C1 (mixture of isomers) [Compound 129]

IC50: 250 to 1000 nM
SMILES: O=C1CC[C@H](NC(=O)[C@H]2C[C@H](c3c(-c4ccc(F)cc4)[nH]c4c(F)cc(F)cc43)C2)C1 [Compound 139]

IC50: 250 to 1000 nM
SMILES: O=C([C@H]1C[C@H](c2c(-c3ccc(F)cc3)[nH]c3c(F)cc(F)cc32)C1)N1CCC[C@@H](O)C1 [Compound 149]

IC50: 250 to 1000 nM
SMILES: O=C(N[C@@H](CO)C(F)(F)F)[C@H]1C[C@H](c2c(-c3ccc(F)cc3)[nH]c3c(F)cc(F)cc32)C1 [Compound 163]
